Test results: US20150105252A1, “SUBSTITUTED PYRAZOLES AS HERBICIDES” (E I DU PONT DE NEMOURS AND COMPANY, priority 2013, published 2015)

How the values were obtained:
[1] = test system: ryegrass, Italian; test: Test C preemergence; assay type: in vivo, Lolium multiflorum
How it was run: (§1)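 In this greenhouse assay, seeded soil (loam plus sand) or emerged seedlings in peat-vermiculite medium were treated with formulated compound. Roughly two weeks later (13–15 days), each species was scored visually relative to controls, from 0 for no effect to 100 for complete control.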

[2] = test system: crabgrass, large; test: Test C preemergence; assay type: in vivo, Digitaria sanguinalis
Source text: (§2) Seeds of plant species selected from blackgrass (Alopecurus myosuroides), ryegrass, Italian (Italian ryegrass, Lolium multiflorum), wheat (winter wheat, Triticum aestivum), galium (catchweed bedstraw, Galium aparine), corn (Zea mays), crabgrass, large (large crabgrass, Digitaria sanguinalis), foxtail, giant (giant foxtail, Setaria faberii), johnsongrass (Sorghum halepense), lambsquarters (Chenopodium album), morningglory (Ipomoea coccinea), nutsedge, yellow (yellow nutsedge, Cyperus esculentus), pigweed (redroot pigweed, Amaranthus retroflexus), ragweed (common ragweed, Ambrosia elation), soybean (Glycine max), barnyardgrass (Echinochloa crus-galli), oilseed rape (Brassica napus), waterhemp (common waterhemp, Amaranthus rudis), oat, wild (wild oat, Avena fatua), kochia (Kochia scoparia), Surinam grass (Brachiaria decumbens), foxtail, green (green foxtail, Setaria viridis), goosegrass (Eleusine indica), bromegrass, downy (downy bromegrass, Bromus tectorum), nightshade (eastern black nightshade, Solanum ptycanthum), cocklebur (common cocklebur, Xanthium strumarium), cupgrass, woolly (woolly cupgrass, Eriochloa villosa), bermudagrass (Cynodon dactylon), sunflower, (common oilseed sunflower, Helianthus annuus), Russian thistle (Salsola kali), and velvetleaf (Abutilon theophrasti) were planted into a blend of loam soil and sand and treated preemergence with test chemicals formulated in a non-phytotoxic solvent mixture which included a surfactant.
(§3) At the same time, plants selected from these crop and weed species and also chickweed (common chickweed, Stellaria media), canarygrass (littleseed canarygrass, Phalaris minor), and deadnettle (henbit deadnettle, Lamium amplexicaule), were planted in pots containing Redi-Earth® planting medium (Scotts Company, 14111 Scottslawn Road, Marysville, Ohio 43041) comprising spaghnum peat moss, vermiculite, wetting agent and starter nutrients and treated with postemergence applications of test chemicals formulated in the same manner. Plants ranged in height from 2 to 18 cm (1- to 4-leaf stage) for postemergence treatments. Treated plants and controls were maintained in a greenhouse for 13 to 15 days, after which time all species were compared to controls and visually evaluated. Plant response ratings, summarized in Table C, are based on a scale of 0 to 100 where 0 is no effect and 100 is complete control. A dash (-) response means no test result.

[3] = test system: foxtail, giant; test: Test C preemergence; assay type: in vivo, Setaria faberii
How it was run: as §1

[4] = test system: nutsedge, yellow; test: Test C preemergence; assay type: in vivo, Cyperus esculentus
Source text: as §2, §3

[5] = test system: pigweed; test: Test A postemergence; assay type: in vivo, Amaranthus retroflexus
How it was run: (§4)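 Ratings express plant response from 0 (no effect) to 100 (complete control), judged visually against untreated controls after approximately 10 days in the greenhouse. Preemergence applications were made as directed soil sprays onto seeded loam–sand mix, and postemergence applications onto 2–10 cm plants at one- to two-leaf stage.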

[6] = test system: waterhemp; test: Test C preemergence; assay type: in vivo, Amaranthus rudis
Source text: as §2, §3

[7] = test system: wheat; test: Test A preemergence; assay type: in vivo, Triticum aestivum; conditions: preemergence; for Wheat plant response rating (0 to 100 scale): 125 g ai/ha, visual injury approx. 10 days after treatment; for Wheat plant response rating: 500 g ai/ha, visual injury after approx. 10 days, 0 to 100 scale (0 no effect, 100 complete control)
How it was run: as §4

[8] = test system: ducksalad; test: Test B flood; assay type: in vivo, Heteranthera limosa; conditions: 250 g ai/ha, visual rating on 0 to 100 scale (0 no effect, 100 complete control), 13 to 15 days
How it was run: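 Each compound is applied to the floodwater of pots holding 2-leaf seedlings, water standing 3 cm over the soil throughout. Plants stay in a greenhouse 13 to 15 days before visual scoring against controls from 0 (no effect) to 100 (complete control).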

[9] = test system: ragweed; test: Test C preemergence; assay type: in vivo, Ambrosia elation
How it was run: as §1

[10] = preemergence, 31 g ai/ha, visual rating, scale 0 to 100 (0 no effect, 100 complete control), 13 to 15 days
[11] = preemergence, 62 g ai/ha, scale 0 to 100 (0 no effect, 100 complete control), 13 to 15 days
[12] = preemergence, 125 g ai/ha, 13 to 15 days, scale 0 to 100, 0 = no effect, 100 = complete control
[13] = preemergence, 250 g ai/ha, scale 0 to 100, 0 is no effect, 100 is complete control
[14] = Postemergence, 500 g ai/ha, 0 to 100 scale (0 no effect, 100 complete control)
[15] = postemergence, 125 g ai/ha, about 10 days, visual rating on 0 to 100 scale (0 no effect, 100 complete control)
[16] = Preemergence, 16 g ai/ha, scale 0 to 100

Row | Compound | Ryegrass, Italian plant response rating [1, 10] | Ryegrass, Italian plant response rating [1, 11] | Plant response rating, Ryegrass, Italian [1, 12] | Crabgrass, Large plant response rating [2, 10] | Crabgrass, Large plant response rating [2, 11] | Plant response rating, Crabgrass, Large [2, 12] | Foxtail, Giant plant response rating [3, 10] | Foxtail, Giant plant response rating [3, 11] | Plant response rating, Foxtail, Giant [3, 12] | Nutsedge, Yellow plant response rating [4, 10] | Nutsedge, Yellow plant response rating [4, 11] | Plant response rating, Nutsedge, Yellow [4, 12] | Pigweed plant response rating [5, 14] | Waterhemp plant response rating [6, 10] | Waterhemp plant response rating [6, 11] | Plant response rating, Waterhemp [6, 12] | Wheat plant response rating (0 to 100 scale) [7] | Plant response rating, Ducksalad [8] | Ragweed plant response rating [9, 10] | Ragweed plant response rating [9, 11] | also measured
1 | O=C(NCC(F)(F)F)c1cc(CCF)n(Cc2ccnc(C(F)(F)F)c2)n1 [Compound 175] | 30 | 85 | 90 | 100 | 100 | 100 | 75 | 100 | 100 | 10 | 55 | 70 | 100 | 100 | 100 | 100 | 20 | 100 | 80 | 90 | Ryegrass, Italian plant response rating [1, 13]: 90; Crabgrass, Large plant response rating [2, 13]: 100; Foxtail, Giant plant response rating [3, 13]: 100; Nutsedge, Yellow plant response rating [4, 13]: 98; Pigweed plant response rating [5, 15]: 100; Waterhemp plant response rating [6, 13]: 100; Wheat plant response rating [7]: 100; Plant response rating, Ragweed [9, 12]: 98; Ragweed plant response rating [9, 13]: 95
2 | O=C(NC1CC1)c1cc(CCF)n(Cc2ccnc(C(F)(F)F)c2)n1 [Compound 176] | 5 | 10 | 70 | 98 | 95 | 100 | 35 | 90 | 100 | 5 | 5 | 75 | 100 | 100 | 100 | 100 | 20 | 100 | 85 | 100 | Ryegrass, Italian plant response rating [1, 13]: 85; Crabgrass, Large plant response rating [2, 13]: 100; Foxtail, Giant plant response rating [3, 13]: 100; Nutsedge, Yellow plant response rating [4, 13]: 85; Pigweed plant response rating [5, 15]: 100; Waterhemp plant response rating [6, 13]: 100; Wheat plant response rating [7]: 90; Plant response rating, Ragweed [9, 12]: 100; Ragweed plant response rating [9, 13]: 95
3 | CCNC(=O)c1cc(CCF)n(Cc2ccnc(C(F)(F)F)c2)n1 [Compound 178] | 5 | 5 | 15 | 100 | 95 | 100 | 65 | 90 | 100 | 5 | 15 | 35 | 100 | 90 | 100 | 100 | 0 | 95 | 70 | 85 | Plant response rating, Ryegrass, Italian [1, 16]: 0; Plant response rating, Crabgrass, Large [2, 16]: 30; Plant response rating, Foxtail, Giant [3, 16]: 5; Plant response rating, Nutsedge, Yellow [4, 16]: 0; Pigweed plant response rating [5, 15]: 100; Plant response rating, Waterhemp [6, 16]: 65; Wheat plant response rating [7]: 30; Plant response rating, Ragweed [9, 16]: 60; Plant response rating, Ragweed [9, 12]: 90
4 | CCCc1cc(C(=O)NOC(C)C)nn1Cc1cc(C(F)(F)F)nn1C [Compound 203] | 5 | 60 | 90 | 80 | 95 | 100 | 60 | 98 | 100 | 5 | 35 | 85 | 100 | 85 | 95 | 100 | 80 | 95 | 75 | 80 | Ryegrass, Italian plant response rating [1, 13]: 90; Crabgrass, Large plant response rating [2, 13]: 100; Foxtail, Giant plant response rating [3, 13]: 100; Nutsedge, Yellow plant response rating [4, 13]: 90; Pigweed plant response rating ([5]; Postemergence, 125 g ai/ha, 0 to 100 scale, 0 no effect, 100 complete control): 90; Waterhemp plant response rating [6, 13]: 100; Plant response rating, Ragweed [9, 12]: 98; Ragweed plant response rating [9, 13]: 100
